Results from patent publication US20220289782A1, “A Compound with High Anticoagulant Activity and Its Preparation Method and Application” (SUZHOU WISMED PHARMACEUTICALS CO LTD, priority 2019, published 2022).

Assays:
[1] = Half-life after intravenous injection in male Wistar rats, concentration from plasma anti-factor Xa; type: in vivo; conditions: 1 mg/Kg, T1/2 from concentration-time curve
Description: (§1) The pentose (API) in Example 10 is subjected to a biological test: anticoagulant factor Xa activity and half-life (Ti/2), as shown in Table 1. Determination of anticoagulant factor Xa activity: Refer to substrate developing method for determination of anticoagulant factor Xa of low molecular heparin. Measurement of half-life: inject this anticoagulant pentose (dosage 1 mg/Kg) in male Wistar rats intravenously for pharmacokinetic study, calculate the concentration of this compound in blood by measuring the anticoagulant factor Xa in plasma, and calculate the half-life (T1/2) by the concentration-time curve.

factor Xa = test: Determination of anticoagulant factor Xa activity (substrate developing method as for low molecular heparin); type: biochemical
Description: as §1

Half-life [1]: 0.6 ± 0.1 H
SMILES: CO[C@H]1O[C@H](COS(=O)(=O)O)[C@@H](O[C@@H]2O[C@@H](C(=O)O)[C@@H](O[C@H]3O[C@H](COS(=O)(=O)O)[C@@H](O[C@@H]4O[C@H](C(=O)O)[C@@H](O[C@H]5O[C@H](COS(=O)(=O)O)[C@@H](O)[C@H](O)[C@H]5NS(=O)(=O)O)[C@H](O)[C@H]4O)[C@H](OS(=O)(=O)O)[C@H]3NS(=O)(=O)O)[C@H](O)[C@H]2OS(=O)(=O)O)[C@H](O)[C@H]1NS(=O)(=O)O [Fondaparinux sodium]
Anticoagulant Factor Xa (factor Xa): 750 + 30 IU/mg
